{"source": "patent US20230137092A1", "about": "“Composition and Method for the Treatment and Prevention of Cardiac, Pulmonary, Dermal, and Renal Fibrosis” (EMERALD HEALTH PHARMACEUTICALS INC., priority 2020, published 2023)", "key": {"[1]": {"test_system": "cardiac myofibroblast proliferation", "assay": "Ki67 immunostaining of left ventricle sections (myofibroblast proliferation), Ang II preventive model", "format": "in vivo, mouse", "conditions": "two weeks after Ang II infusion; ###p<0.001 versus Ang II group", "protocol": "Proliferation of fibroblast is an important event of Ang II-induced fibrosis and plays an important role in cardiac fibrosis. […] Ki 67 is a protein that is encoded by the MKI67 gene and is a cellular marker for proliferation. Cardiac tissue sections ([…]) were deparaffinized and boiled for 10 minutes in sodium citrate buffer (10 mM, pH 6.0) (Sigma-Aldrich, Madrid, Spain) for antigen retrieval. The sections were then incubated in a PBS washing buffer containing 0.1% Triton X-100 (Sigma-Aldrich, Madrid, Spain) three times for 10 minutes. Nonspecific binding was blocked with 3% bovine serum albumin (BSA) (Sigma-Aldrich, Madrid, Spain). The sections were incubated overnight at 4° C. with Ki 67 antibody (1:100 dilution, ab15580, Abcam, Cambridge, UK). After three washes for 10 minutes each in wash buffer, slides were incubated with secondary antibody anti-rabbit Texas Red (1:100 dilution, #A-6399, Thermo Fischer Scientific, Waltham, Mass., USA) for 1 hour at room temperature in the dark. […] All images were acquired using a spectral confocal laser-scanning microscope LSM710, (Zeiss, Jena, Germany) with a 63× Plan-Apochromat oil immersion lens and quantified in 10-15 randomly chosen fields using ImageJ software (rsb.info.nih.gov/ij/)."}, "E2F pathway": {"test_system": "E2F pathway", "assay": "RNA-Seq of myocardial tissue with GSEA of MSigDb hallmarks, Ang II preventive model", "format": "in vivo, mouse", "conditions": "cardiac RNA; Ang II-challenged mice; n=3 each group", "protocol": "RNA seq analysis from RNA extracted of myocardial tissue was performed. Transcriptome libraries were constructed with TruSeq Illumina TruSeq mRNA Sample Prep v2 kit (#RS-122-2001). In brief, 300 ng of RNA from each sample was used to construct a cDNA library, followed by sequencing on the Illumina Hiseq 2500 with single end 50 bp reads and ˜30 million reads per sample.\nRNA-Seq reads were pre-processed with fastp (v0.20.0) and aligned to mouse genome assembly grcm38 using HISAT2 (v2.1.0). Then, counts per gene were obtained with featureCounts (v1.6.1) and normalization and differential expression analyses were carried out using edgeR (v3.26.8), excluding those genes with less than 15 counts across all samples. Finally, the functional analysis was performed using the functional categories defined by MSigDb hallmarks for Mus musculus (V7.0) and the clusterProfiler package (v3.12.0).\nThe results confirmed the hallmarks that were enriched in the Ang II group versus control group were pathways related to fibrotic response; this was the case of IFN-α and IFN-γ response, TNF-α signaling via NF-KB, Epithelial Mesenchymal Transition and inflammatory responses, including IL6 JAK STAT Signaling (FIG. 6). The results were obtained after carrying out the functional analysis of the transcriptomic signatures in heart tissue. […]"}, "[2]": {"test_system": "human immortalized cardiac fibroblasts (hICF)", "assay": "Fibroblast differentiation into myofibroblasts: α-SMA expression in hICF", "format": "cell-based", "conditions": "hICF treated with TGF-β or Ang II; pretreatment with compound", "from_the_text": "The profibrotic activity of Ang II on cardiac fibroblasts in vitro and in vivo has been extensively documented (H. H. Sigusch et al., 1996, Cardiovasc Res, 31:546-554). To study myofibroblast differentiation in vitro, immortalized cardiac fibroblasts (hICF) were stained with for α-SMA expression, a specific marker for myofibroblasts differentiation. Immortalized primary human cardiac fibroblasts (hICF) with SV40 Large T antigen were obtained from Innoprot SL (Derio, Spain) and cultured in low passages (<5 passages). The cells were maintained in a humidified atmosphere at 37° C. containing 5% CO2, 10% fetal bovine serum (FBS) and 1% (v/v) penicillin/streptomycin in Fibroblast Medium-2 (P60108-2, Innoprot, Derio, Spain). Ang II was purchased from Sigma-Aldrich Co (A9525, Sigma, Madrid, Spain) and TGFb1 (Transforming Growth Factor-b)-1 (10 ng/mL) was obtained from ImmunoTools GmbH (Friesoythe, Germany). Both TGF-β and Ang II induced α-SMA protein expression in cultured hICF and pretreatment with compound of Formula (VIII) decreased α-SMA expression. The differentiation to myofibroblast was associated with morphological changes of cellular hypertrophy."}, "[3]": {"test_system": "Ang II-induced cardiac fibrosis", "assay": "Ang II therapeutic model: perivascular myocardial collagen deposition", "format": "in vivo, mouse", "conditions": "Ang II 500 ng kg^- min^- 28 days, 20 mg/kg oral during last 14 days, ##p<0.01 versus Ang II group", "protocol": "For the therapeutic model, infusion of Ang II for four weeks and the compound of Formula (VIII) (20 mg/kg) was administrated after two weeks of pump implantation. Subcutaneous infusion of Ang II using ALZET osmotic minipumps was used to study the preventive effects of the compound ALZET® osmotic minipumps (Model #2004, Charles Rives, Barcelona, Spain) delivering of Ang II (500 ng kg^−1 min^−1) (Sigma-Aldrich, Madrid, Spain) for four weeks. Compound treatment was daily administered in parallel, two weeks after the implantation of the subcutaneous pump, beneath the midscapular loose skin and consisted of daily oral gavage of compound of Formula (VIII) (20 mg/kg) or vehicle (Corn Oil/Maisine CC, 1/1). Mice were acclimated to manipulators for a week previously to the experiments in order to reduce stress and allow the detection of subtle changes in behavior by researchers. […] Neither piloerection nor hunched appearances were appreciated during the experimental procedures. Mice were sacrificed by cervical dislocation and the heart, aorta, kidney, and lung were removed and processed for histological examination or were frozen for further analysis."}, "[4]": {"test_system": "inflammatory and fibrotic marker mRNAs in heart", "assay": "Real-time quantitative PCR of inflammatory and fibrotic markers in heart, Ang II preventive model", "format": "in vivo, mouse", "conditions": "Ang II infused mice; 2-ΔΔCt method"}}, "data": [{"smiles": "C=C(C)C1CCC(C)=C[C@H]1C1=C(O)C(=O)C(CCCCC)=C(NCc2ccccc2)C1=O", "note": "(stereo partly shown) [Formula (VIII)]", "values": [{"measurement": "myofibroblast proliferation in left ventricle (Ki67-positive cells)", "setting": "[1]", "value": "reduced"}, {"measurement": "expression of a set of genes of E2F pathway (RNA-Seq)", "setting": "E2F pathway", "value": "clearly downregulated"}, {"measurement": "α-SMA expression", "setting": "[2]", "value": "decreased"}, {"measurement": "Ang II perivascular myocardial collagen deposition", "setting": "[3]", "value": "reduced"}, {"measurement": "IL1β expression level in left ventricle", "setting": "[4]", "value": "significantly reduced"}, {"measurement": "IL6 expression level in left ventricle", "setting": "[4]", "value": "significantly reduced"}, {"measurement": "TNC expression level in left ventricle", "setting": "[4]", "value": "significantly reduced"}]}]}
